Measurements: ChEMBL document CHEMBL3507680, “University of Dundee, Gates Library screen for HepG2 cell viability”

Assay: Human HepG2 cell viability assay in 384 well format
Assay type: toxicity, cell-based
Parameters: dose 125 nL, time 70.5 hour; concentration not given beside the values
Conditions: HepG2 cells, read-out: Inhibition

In order of falling cytotoxicity at 70.5 h:
1. CO[C@H]1CN(C(C)C)C[C@@H]1NC(=O)Nc1cccc(SC)c1  49.1%
2. COCCN1CCN(CC2CCCCO2)CC1 (configuration not stated)  38.7%
3. OC(CNC1CCSCC1)c1cccc(OCc2ccccc2)c1 (configuration not stated)  23.4%
4. Cc1cnc(C)c(Oc2ccc(Cl)c(CN3CCCC3)c2Cl)n1  18.5%
5. CN(CCc1ccccn1)Cc1nccn1Cc1ccccc1  11.8%
6. c1cc(COC[C@]23COC[C@H]2CN(Cc2ccncc2)C3)ccn1  9.04%
7. COc1ccccc1/C=C/CNCC1CCc2nncn2C1 (configuration not stated)  8.27%
8. CCS(=O)(=O)NC[C@]12COC[C@H]1CN(Cc1ccsc1)C2  7.84%
9. Cc1cnc(CNC(=O)CCCn2cnc3ccccc3c2=O)cn1  6.51%
10. Cc1ncc(S(C)(=O)=O)c(N2Cc3ccccc3C2)n1  2.76%
11. CN(C(=O)c1ccc(Cl)cc1)C1CCN(c2ccccn2)CC1  2.33%
12. CC(C)(C)C(=O)N1CCCc2c(cnn2-c2ccccc2)C1  1.62%
13. COCCO[C@H]1CCN(C(=O)c2cc(C)on2)[C@H]1Cc1ccccc1  0.559%
14. Cc1ccc(C(=O)N2CCc3c(CNS(C)(=O)=O)cncc3C2)o1  0.323%
15. N#Cc1ccc(CNc2ncc(C#N)cc2Cl)cc1  0.2%
16. Cc1cc(C(O)CCNC(=O)COc2ccccc2F)c(C)o1 (configuration not stated)  -0.424%
17. CCn1cnnc1CNC(=O)N(C)Cc1cccc(OC(F)F)c1  -0.632%
18. COCCc1noc(CN2CCCC2c2noc(C3CC3)n2)n1 (configuration not stated)  -1.05%
19. CCN(CC)c1ncnc2c1CCN(C(=O)Cc1ccccn1)CC2  -1.31%
20. Cc1cc(N(C)C)nc(N2CCCC2c2cccnc2)n1 (configuration not stated)  -1.47%
21. O=C(NC[C@@H]1CCCO1)c1cc(Br)cnc1N1CCCCC1  -1.68%
22. COCCO[C@@H]1CCN(C(=O)c2ccc(C)o2)[C@@H]1Cc1cnn(C)c1  -2.12%
23. CCS(=O)(=O)c1ccccc1N1CCC(NC2CCCC2)CC1  -2.15%
24. CC(=O)NCc1ccc(C(=O)Nc2ccc3c(c2)C(=O)NC3)cc1  -2.55%
25. Cc1cc(-c2cnn(C)c2)ccc1OCC(N)=O  -2.62%
26. Cc1c(NC(C)C(C)C)cccc1C(=O)NCc1cnn(C)c1 (configuration not stated)  -2.68%
27. Cc1n[nH]c(C)c1-c1cnc(CC2CCN(C(C)C)CC2)cn1  -2.78%
28. Cc1cccc(C(=O)N2CCn3cnc(COCC4CC4)c3C2)n1  -2.97%
29. Cn1cc(NC(=O)N2CCCC2c2cccnc2)ccc1=O (configuration not stated)  -3.14%
30. Cc1cc(C)nc(N2CCC(c3c(C(N)=O)sc4ccccc34)C2)n1 (configuration not stated)  -3.24%
31. CN1CCC(c2nc3ccc(-c4ccccc4)cn3n2)CC1  -3.45%
32. CCc1nnsc1C(=O)NC1CCN(CCOc2ccc(Br)cc2)CC1  -4.31%
33. COCCNCc1cc2cc(C)cc(C)c2[nH]c1=O  -4.55%
34. CC(Cn1cncn1)NC(=O)NCC(C)(C)Cc1ccccc1 (configuration not stated)  -4.62%
35. CCSCCNc1cc(C)nc2c(C)c(C)nn12  -4.65%
36. CN(CCc1ccccn1)C1CCCN(Cc2noc(C3CC3)n2)C1 (configuration not stated)  -4.84%
37. COCCC1COC2(CCN(C(C)=O)CC2)C1 (configuration not stated)  -5.06%
38. Cn1cc(NC(=O)c2cc[nH]n2)cc(Cl)c1=O  -5.18%
39. Cc1cc(CN2CC[C@H]3[C@H]2CCN3C)oc1C  -5.26%
40. Cc1cccc(-c2noc(CN3CC(n4cc(C)cn4)C3)n2)c1  -5.31%
41. Cn1c(CN2CC[C@](C)(O)C(C)(C)C2)cc2ccccc21  -5.32%
42. CCc1noc(C(C)N2CCN(CCc3ccncc3)CC2)n1 (configuration not stated)  -5.36%
43. CNC(=O)N1CCC2(CC1)CNc1ccc(F)cc12  -5.44%
44. Cn1cc(C(=O)N2CCCC2c2[nH]ncc2C(N)=O)cn1 (configuration not stated)  -5.5%
45. Cc1ccc(S(=O)(=O)N(CC(N)=O)CC(C)C)cc1C  -5.56%
46. Cn1cc(CN2CCOC(Cc3cccc(F)c3)C2)cn1 (configuration not stated)  -6%
47. CN(C)c1cncc(C2CCCN(c3cnccn3)C2)n1 (configuration not stated)  -6.42%
48. Cc1cc(CN(C)C(=O)CNS(=O)(=O)c2cccs2)no1  -6.5%
49. Cc1nc(CN2CCN(c3ccc(Cl)cn3)CC2)no1  -6.61%
50. CC(C(=O)NCc1cccc(N2CC=CC2)c1)n1cccn1 (configuration not stated)  -7.35%
51. CC(C)c1nc(S(=O)(=O)N(C)c2ccc(F)cc2)c[nH]1  -7.45%
52. CCCN(CC1COc2ccccc2O1)C(=O)c1ncoc1CC (configuration not stated)  -7.46%
53. CN(C)Cc1nc(C(C)(C)NC(=O)c2nc3ccccc3s2)no1  -7.47%
54. O=C(c1cc[nH]n1)N1CCC(c2cc(Nc3ccccn3)n[nH]2)CC1  -8.04%
55. Nc1cc2c(nn1)CCN(C(=O)c1cccnc1Oc1ccccc1)C2  -8.86%
56. O=C(NC1CCC1)[C@@H]1C[C@@H]2CCN(CCc3ccccc3)C[C@H]2O1  -8.97%
57. CN(Cc1cc(-c2cccnc2)no1)C(=O)[C@@H]1CSCN1C  -8.97%
58. O=C(Nc1ccccc1)[C@H]1CN2CCC1C[C@@H]2Cn1cc(CO)nn1 (some centres not stated)  -9.02%
59. CCSCCn1cc(-c2nccs2)nn1  -9.08%
60. Cc1cc(C)nc(N2CC=C[C@@H]2C(=O)NCc2ccc3c(c2)OCO3)n1  -9.16%
61. Cc1nc(Cn2c3c(ccc2=O)CC(NC(C)C)CC3)cs1 (configuration not stated)  -9.3%
62. CC(C)(C)n1ncc(C(=O)NCCCC(N)=O)c1C(F)(F)F  -9.38%
63. O=C(CCn1cncn1)N1C[C@H]2CC[C@@H]1CN(Cc1cccnc1)C2  -9.48%
64. Cc1ccc(NC2CCN(C(=O)Cc3csc(C)n3)CC2)nn1  -9.75%
65. Cc1cnn(CCNCC(O)COc2ccc(F)cc2)c1 (configuration not stated)  -10.4%
66. COc1ccc(CN(C(=O)C2CCOCC2)c2ccncc2)cc1  -10.6%
67. O=C(c1ccccn1)N1CCN(c2cnnc(N3CCCC3)c2)CC1  -10.9%
68. O=C(NC1CC1)[C@@H]1CCO[C@@H]2CCN(CC3CCC3)C[C@@H]21  -11.4%
69. CCN(CCc1nc2cc(C)ccc2[nH]1)C(=O)[C@@H](N)Cc1c[nH]cn1  -11.4%
70. O=C([C@@H]1CC[C@@H]2[C@@H](CCN2Cc2ccoc2)O1)N1CCCC1  -11.4%
71. CCOc1ccc(C(C)Nc2ncnc3c2CCNC3)cc1OCC (configuration not stated)  -12%
72. CN(CC(=O)N1CCOCC(CO)C1)Cc1ccccn1 (configuration not stated)  -12.5%
73. CCCc1nnc2sc(C3CCN(C4CCN(C)CC4)CC3)nn12  -12.7%
74. O=C(C1CCOCC1)N1CCN(CC2CC2)c2ncccc2C1  -14.2%
75. CC(C)c1cc2c(O)nc(CSCC(=O)O)nc2s1  -14.7%
76. CC(C)n1ccc2ccc(C(=O)NC3CN4CCC3CC4)cc21 (configuration not stated)  -17.1%
77. CN(C)S(=O)(=O)N1C[C@@H]2COC[C@]2(COc2ccccn2)C1  -17.2%
78. CC(C)(C)C1CC(=O)Nc2c1cnn2Cc1ccco1 (configuration not stated)  -17.9%
79. CC(C)(C)c1nc(CN2CCCN(Cc3cccs3)CC2)no1  -18.1%
80. Cn1nnnc1SC1CCc2ccccc2NC1=O (configuration not stated)  -24.7%
81. Cc1cnn(CC2CCCN2C(=O)c2cccc(-n3cnnn3)c2)c1 (configuration not stated)  -28.5%
82. CS(=O)(=O)Cc1noc(CN2CCc3c(Cl)cccc3C2)n1  -79.4%
